Laboratory results taken from US10077288B2, “Hydroxystatin derivatives for the treatment of arthrosis” (Merck Patent GmbH, priority 2012, dated 2018).
pIC50: −log10 of the molar value.

Experiments:
[1] = Stability in bovine synovial fluid; type: in vitro ADME; conditions: 1 μM, up to 48 h at 37° C.
Method: EXAMPLE 7: STABILITY OF THE COMPOUNDS ACCORDING TO THE INVENTION IN BOVINE SYNOVIAL FLUID
In the preparation of bovine explants (for the diffusion chamber or other assays), either cow hoof (metacarpal joints) or cow knee is used. The synovial fluid can be obtained from both joints. To this end, the synovial fluid is carefully removed from the open joint using a 10 ml syringe and a cannula and transferred into prepared 2 ml Eppendorf vessels. The Eppendorf vessels are labelled depending on the animal (cow passport is available). […] If this is the case, the synovial fluid will become a reddish colour and must consequently be discarded. The synovial fluid is basically highly viscous and clear to yellowish in colour. The removal together with a macroscopic analysis of the synovial fluid is documented.
In order to check the stability of individual compounds, a pool of four different bovine synovial fluids is mixed. To this end, about 1 ml per SF is used. The mixture is prepared directly in a 5 ml glass vessel. The SFs are mixed thoroughly, but carefully. No air bubbles or foam should form. To this end, a vortex unit is used at the lowest speed. The compounds to be tested are tested in an initial concentration (unless required otherwise) of 1 μM. After addition of the substance, the batch is again mixed thoroughly and carefully. For visual monitoring, all SF batches are photographed, and the pictures are filed in the eLabBio file for the corresponding experiment. […] The batches are incubated in the incubator for 48 h at 37° C. and 7.5% CO2.
The sampling is carried out after the pre-agreed times (unless required otherwise, see below). 200 μl of the SF are removed from the mixture per time and transferred directly into a 0.5 ml “low-binding” Eppendorf vessel. […]
The concentrations measured (ng/ml) are plotted against the time in a graph (GraphPad Prism®). The percentage stability of the substance is determined here. […]
All compounds measured remained stable (see Table 2 in Example 1).

recombinant human renin = molecular target: T1, recombinant human renin (Homo sapiens, UniProt P00797); experiment: In-vitro fluorescence assay for identification of renin-inhibitory activity; type: biochemical; conditions: recombinant human renin 10 nM, FRET substrate 5 μM, pH 7.2; read-out: Renin selectivity IC50
T1 construct: purchased Proteos, Kalamazoo, Mich
T1 sequence (P00797 67-406): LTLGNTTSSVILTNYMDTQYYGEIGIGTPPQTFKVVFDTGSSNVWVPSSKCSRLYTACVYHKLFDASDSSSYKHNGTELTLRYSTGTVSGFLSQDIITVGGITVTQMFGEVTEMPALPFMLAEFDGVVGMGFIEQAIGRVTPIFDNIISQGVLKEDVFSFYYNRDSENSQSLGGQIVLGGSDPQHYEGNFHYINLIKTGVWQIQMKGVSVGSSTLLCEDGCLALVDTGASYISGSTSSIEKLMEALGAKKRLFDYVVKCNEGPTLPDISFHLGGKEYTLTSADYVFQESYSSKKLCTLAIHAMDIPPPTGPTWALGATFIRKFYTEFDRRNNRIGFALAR
Method: EXAMPLE 8: IN-VITRO FLUORESCENCE ASSAY FOR IDENTIFICATION OF RENIN-INHIBITORY ACTIVITY
In order to identify modulators of renin activity, a continuous enzymatic test was carried out with a synthetic peptide which carries a fluorescent group Edans (=(5-(aminoethyl)aminonaphthalenesulfonate) which is quenched by energy transfer from a Dabcyl (4′-dimethylaminoazobenzene-4-carboxylate) group on the same molecule, in Greiner 384-well microtitre plates. Cleavage of the peptidic substrate by renin causes an increase in the fluorescence intensity. In order to determine the efficacy of substances, the time-dependent increase in the fluorescence intensity in the presence of the substance was compared with the time-dependent increase in fluorescence in the absence of substances. The reference substance used was renin inhibitor 2 (Z-Arg-Arg-Pro-Phe-His-Sta-Ile-His N-Boc-Lys methyl ester Z) (Sigma-Aldrich). The substrate used was renin FRET substrate I (DABCYL-g-Abu-Ile-His-Pro-Phe-His-Leu-Val-Ile-His-Thr-EDANS) (Anaspec, Fremont Calif.). The enzyme employed was recombinant human renin (Pro-teos, Kalamazoo, Mich.) in a final concentration of 10 nM. The test was carried out in 50 mM Mops buffer, 1.5% (v/v) of DMSO, 0.1% (w/v) of Igepal®, pH 7.2, 0.5% (w/v) of BSA. 2 μl of each substance solution with serially diluted substance concentration were added to in each case 4 μl of renin solution and incubated at room temperature for 15 min. The reaction was started by addition of 4 μl of substrate solution (final concentration 5 μM). After carrying out a starting-point fluorescence measurement (excitation wavelength 340 nm/emission wavelength 495 nm) using an Envision multilabel reader (Perkin Elmer), the reaction was incubated at 37° C. for 60 min. The amount of peptide fragment cleaved off during the reaction time was subsequently measured by determination of the increase in the fluorescence intensity at 495 nm (excitation wavelength 340 nm).
Result: all compounds measured have an IC50 of the renin selectivity of >30 μM (see Table 2 in Example 1).

SMILES | Stability in synovial fluid [1] | pIC50 (recombinant human renin)
CC[C@H](C)[C@H](NC(=O)C[C@H](O)[C@H](Cc1ccccc1)NC(=O)[C@@H](NC(=O)CCc1ccccc1)C(C)C)C(=O)N[C@H](C(=O)O)C(C)C [Compound 4, (S)-2-((2S,3S)-2-{(3S,4S)-3-hydroxy-4-[(S)-3-methyl-2-(3-phenyl-propionylamino)butyrylamino]-5-phenylpentanoylamino}-3-methylpentanoylamino)-3-methylbutyric acid] | stable | –
CC[C@H](C)[C@H](NC(=O)C[C@H](O)[C@H](Cc1ccccc1)NC(=O)[C@@H](NC(=O)CCCc1ccccc1)C(C)C)C(=O)N[C@H](C(=O)O)C(C)C [Compound 5, (S)-2-((2S,3S)-2-{(3S,4S)-3-hydroxy-4-[(S)-3-methyl-2-(4-phenyl-butyrylamino)butyrylamino]-5-phenylpentanoylamino}-3-methylpentanoylamino)-3-methylbutyric acid] | stable | 4.70
CC[C@H](C)[C@H](NC(=O)C[C@H](O)[C@H](Cc1ccccc1)NC(=O)[C@@H](NC(=O)Cc1cccc(OC)c1)C(C)C)C(=O)N[C@H](C(=O)O)C(C)C [Compound 20, (S)-2-[(2S,3S)-2-((3S,4S)-3-hydroxy-4-{(S)-2-[2-(3-methoxyphenyl)-acetylamino]-3-methylbutyrylamino}-5-phenylpentanoylamino)-3-methylpentanoylamino]-3-methylbutyric acid] | stable | –
